Experimental data: patent US20220274991A1, “SMALL MOLECULE INHIBITORS OF KU70/80 AND USES THEREOF” (Arizona Board of Regents on Behalf of the University of …, priority 2019, published 2022)

Biological target: T1, Ku70/80 (Homo sapiens, UniProt P12956+P13010)
T1 construct: purchased AMRI
Experiment: EMSA IC50 (AMRI Ku70/80)
Assay type: binding
Conditions: Hill equation fitted

T1 sequence (P12956 whole entry): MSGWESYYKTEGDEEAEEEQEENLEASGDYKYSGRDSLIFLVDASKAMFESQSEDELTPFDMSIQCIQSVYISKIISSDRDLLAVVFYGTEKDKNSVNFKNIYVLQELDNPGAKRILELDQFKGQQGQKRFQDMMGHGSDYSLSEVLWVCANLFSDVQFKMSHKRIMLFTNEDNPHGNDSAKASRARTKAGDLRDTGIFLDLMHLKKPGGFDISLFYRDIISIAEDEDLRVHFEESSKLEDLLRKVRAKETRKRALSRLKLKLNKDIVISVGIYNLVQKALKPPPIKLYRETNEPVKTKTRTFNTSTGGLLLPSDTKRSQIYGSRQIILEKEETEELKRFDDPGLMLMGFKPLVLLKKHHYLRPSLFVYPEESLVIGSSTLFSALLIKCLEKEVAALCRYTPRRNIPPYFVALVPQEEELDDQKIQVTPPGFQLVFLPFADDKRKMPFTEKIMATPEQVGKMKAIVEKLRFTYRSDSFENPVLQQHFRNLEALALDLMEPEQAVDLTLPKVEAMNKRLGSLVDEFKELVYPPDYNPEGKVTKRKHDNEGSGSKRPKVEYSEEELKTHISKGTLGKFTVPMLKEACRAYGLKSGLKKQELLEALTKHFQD
T1 sequence (P13010 whole entry): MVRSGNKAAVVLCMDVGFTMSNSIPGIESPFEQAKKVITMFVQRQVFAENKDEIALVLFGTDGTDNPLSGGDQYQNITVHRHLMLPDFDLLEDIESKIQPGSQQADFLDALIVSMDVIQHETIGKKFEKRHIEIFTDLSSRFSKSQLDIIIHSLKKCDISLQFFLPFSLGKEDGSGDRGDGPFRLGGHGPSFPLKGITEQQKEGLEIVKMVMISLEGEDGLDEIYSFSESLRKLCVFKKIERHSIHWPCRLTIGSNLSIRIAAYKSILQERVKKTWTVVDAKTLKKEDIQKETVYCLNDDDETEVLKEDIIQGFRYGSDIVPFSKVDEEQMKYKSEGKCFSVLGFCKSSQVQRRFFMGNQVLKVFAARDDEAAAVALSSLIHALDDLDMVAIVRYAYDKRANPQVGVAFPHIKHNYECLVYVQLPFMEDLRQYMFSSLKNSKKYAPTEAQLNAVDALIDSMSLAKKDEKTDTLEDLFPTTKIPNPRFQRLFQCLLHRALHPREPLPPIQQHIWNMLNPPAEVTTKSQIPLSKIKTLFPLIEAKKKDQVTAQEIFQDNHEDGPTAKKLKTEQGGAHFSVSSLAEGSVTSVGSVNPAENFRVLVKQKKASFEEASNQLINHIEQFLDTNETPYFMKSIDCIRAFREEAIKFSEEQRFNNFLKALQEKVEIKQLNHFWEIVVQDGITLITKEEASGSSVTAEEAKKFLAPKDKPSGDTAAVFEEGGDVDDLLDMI

NS(=O)(=O)c1ccc(-n2c(=O)[nH]c3nc(NCCc4cccc(F)c4)ncc3c2=O)cc1
IC50: 6.9 µM

O=c1[nH]c2nc(NCCc3ccccc3)ncc2c(=O)n1-c1cccc(F)c1
IC50: 28 µM

O=c1[nH]c2nc(NCCc3cccnc3)ncc2c(=O)n1-c1cccc(F)c1
IC50: 40 µM

O=c1[nH]c2nc(NCCc3ccncc3)ncc2c(=O)n1-c1cccc(F)c1
IC50: 18 µM

O=c1[nH]c2nc(NCCc3cccc(F)c3)ncc2c(=O)n1-c1nccs1
IC50: 43 µM

O=c1[nH]c2nc(NCCc3cccc(F)c3)ncc2c(=O)n1-c1ccc(N2CCOCC2)c(F)c1
IC50: 6.9 µM

COc1ccc(CCNc2ncc3c(=O)n(-c4cccc(F)c4)c(=O)[nH]c3n2)cc1F
IC50: 54 µM

O=c1[nH]c2nc(N3CCc4cc(F)ccc4C3)ncc2c(=O)n1-c1cccc(F)c1
IC50: 34 µM

CCOC(=O)c1cccc(-n2c(=O)[nH]c3nc(NCCc4cccc(F)c4)ncc3c2=O)c1
IC50: 11 µM

O=c1[nH]c2nc(NCCc3ccc4c(c3)OCO4)ncc2c(=O)n1-c1cccc(F)c1
IC50: 9.1 µM

COc1ccc(-n2c(=O)[nH]c3nc(NCCc4cccc(F)c4)ncc3c2=O)cc1OC
IC50: 22 µM

O=c1[nH]c2nc(NCCc3cccc(F)c3)ncc2c(=O)n1-c1cc(F)ccc1F
IC50: 249 µM

O=c1[nH]c2nc(NCCc3cccc(F)c3)ncc2c(=O)n1Cc1ccccc1F
IC50: 10 µM

O=c1[nH]c2nc(NCCc3cccc(F)c3)ncc2c(=O)n1-c1ccc(Br)cc1
IC50: 7.6 µM

CC(C)Cn1c(=O)[nH]c2nc(NCCc3cccc(F)c3)ncc2c1=O
IC50: 5.3 µM

O=c1[nH]c2nc(NCCc3cccc(F)c3)ncc2c(=O)n1-c1ccccn1
IC50: 58 µM

O=c1[nH]c2nc(NCCc3cccc(F)c3)ncc2c(=O)n1CC1CCNCC1
IC50: 45 µM

COc1ccc(CCN(C)c2ncc3c(=O)n(-c4cccc(F)c4)c(=O)[nH]c3n2)cc1OC
IC50: 184 µM

CN(CCc1cccc(F)c1)c1ncc2c(=O)n(-c3cccc(F)c3)c(=O)[nH]c2n1
IC50: 142 µM

O=c1[nH]c2nc(NCc3cccc4c(F)cccc34)ncc2c(=O)n1-c1cccc(F)c1
IC50: 21 µM

COc1c(F)cccc1-n1c(=O)[nH]c2nc(NCCc3cccc(F)c3)ncc2c1=O
IC50: 27 µM

O=c1[nH]c2nc(NCCc3cccc(F)c3)ncc2c(=O)n1-c1cccnc1
IC50: 245 µM

O=c1[nH]c2nc(NCCc3ccccn3)ncc2c(=O)n1-c1cccc(F)c1
IC50: 18 µM

O=c1[nH]c2nc(NCC3CCCc4c(F)cccc43)ncc2c(=O)n1-c1cccc(F)c1 (stereo not drawn)
IC50: 20 µM

COc1ccc(-n2c(=O)[nH]c3nc(NCCc4cccc(F)c4)ncc3c2=O)cc1F
IC50: 11 µM

O=c1[nH]c2nc(NCCc3ccc(F)c(F)c3)ncc2c(=O)n1-c1cccc(F)c1
IC50: 33 µM

O=c1[nH]c2nc(NCCc3cccc(F)c3)ncc2c(=O)n1CCO
IC50: 8.8 µM

O=C(O)c1ccc(CNc2ncc3c(=O)n(-c4cccc(F)c4)c(=O)[nH]c3n2)cc1
IC50: 196 µM

O=c1[nH]c2nc(NCCc3ccc4c(c3)OCCO4)ncc2c(=O)n1-c1cccc(F)c1
IC50: 20 µM

CSc1ncc2c(=O)n(-c3ccc(Br)cc3)c(=O)[nH]c2n1
IC50: 20 µM

O=c1[nH]c2nc(NCCc3ccc(O)c(F)c3)ncc2c(=O)n1-c1cccc(F)c1
IC50: 101 µM

O=c1[nH]c2nc(NCCc3ccc4c(c3)OC(F)(F)O4)ncc2c(=O)n1-c1cccc(F)c1
IC50: 20 µM

NS(=O)(=O)c1ccc(CCNc2ncc3c(=O)n(-c4cccc(F)c4)c(=O)[nH]c3n2)cc1
IC50: 50 µM
